Patent publication US6489166B1, “Plant regeneration method for mature seed-derived callus in zoysiagrass” (Korea Kumho Petrochemical Co., Ltd., priority 2001, dated 2002)
Read-outs that look alike come from different tables or passages of the source.

Columns and labels:
[1] = test system: Type I calli derived from mature seeds of zoysiagrass; assay: Effects of cytokinins on shoot induction from callus; format: cell-based, Zoysia japonica Steud.; conditions: 44 Type I calli tested, MS with 30 g/L maltose, 2 weeks
[2] = test system: Type I calli derived from mature seeds of zoysiagrass; assay: as above; format: cell-based, Zoysia japonica Steud.; conditions: for Number of shoots over 5 mm / Number of shoots per callus lump: Type I calli, MS with 30 g/L maltose, 2 weeks
Protocol: The media were additionally supplemented with 1 or 4 mg/L of kinetin, 6-benzylaminopurine, or TDZ. Each treatment consisted of 3 MS plates, each with 16 calli.

[3] = test system: mature seeds of zoysiagrass; assay: Callus induction from mature seeds on MS media with growth hormone combinations; format: cell-based, Zoysia japonica Steud.; conditions: for Callus producing seeds (%) / Number of callus producing seeds: MS, 3 months
Protocol: Seeds of zoysiagrass (Zoysia japonica Steud.), from which seed coats were first removed, were sterilized by soaking in 70% ethyl alcohol for 1 min and subsequently in 5% sodium hypochlorite solution supplemented with 0.001% (v/v) Tween 20 for 15 min. The sterilized seeds were then thoroughly rinsed with sterilized distilled water 3-4 times. They were then germinated and grown for 2 weeks on the N6 media (pH 5.8) containing 1 mg/L 2,4-dichlorophenoxyacetic acid, 3% sucrose, and 0.2% gelite and subject to callus induction. The callus induction and growth was carried out in a controlled environment culture room set at 26° C. and 70% humidity in the dark.
(§1) To examine the effects of plant growth hormones on the callus induction efficiency and the callus morphology, sterilized seeds were placed and cultured on the MS plates supplemented with 4 mg/L thiamine-HCl and 100 mg/L α-ketoglutaric acid. The MS plates, each with a diameter of 9 cm, were further supplemented with various amounts of 2,4-dichlorophenoxyacetic acid (0, 1, 2, 4, 8 mg/L) and 6-benzylaminopurine (0, 0.02, 0.2, 2, 4 mg/L). One hundred seeds were grown per each MS plate, and 3 plates were used for each treatment group. After three months, the number of seeds from which calli had been induced was counted. For the morphological classification of calli, calli were induced and grown on the MS media supplemented with 6-benzylaminopurine and 2,4-dichlorophenoxyacetic acid under the identical condition as described above for three months. They could be morphologically classified into four distinct groups (I-IV), based on the callus morphology, color, and rigidity.
To investigate the effects of plant growth hormones on the callus induction, the mature seed-derived callus induction rates were measured on the MS media supplemented with different amounts of 2,4-dichlorophenoxyacetic acid and 6-benzylaminopurine after grown for three months.
Seeds were plated and grown on the MS media containing 4 mg/L thiamine-HCl, 100 mg/L α-ketoglutaric acid, and different concentration combinations of 2,4-dichlorophenoxyacetic acid and 6-benzylaminopurine for 3 months.

[4] = test system: callus derived from mature seeds of zoysiagrass; assay: Morphology (types I-IV) of callus induced with growth hormone combinations; format: cell-based, Zoysia japonica Steud.; conditions: 6-benzylaminopurine 0 mg/L, MS, 3 months
Protocol: as §1
Calli induced on the MS media supplemented with different concentration combinations of 2,4-dichlorophenoxyacetic acid and 6-benzylaminopurine were morphologically and physiologically analysed. Four distinct callus types (types I to IV) could be apparently discriminated by callus color, morphology, and rigidity (FIG. 1).
Seeds were plated on the MS media containing 4 mg/L thiamine-HCl, 100 mg/L α-ketoglutaric acid, and different concentration combinations of 2,4-dichlorophenoxyacetic acid and 6-benzylaminopurine for 3 months. Callus morphologies were rated by; type I: with yellow and differentiated structure, type II: with white, non-friable, and compact structure, type III: with yellow, friable, and compact structure, Type IV: with whitish yellow, friable, soft, and watery appearance. Type I˜III represents the sum of the numbers of types I to III.

[5] = test system: Type I calli derived from mature seeds of zoysiagrass; conditions: for Calli with green shoot (%) / Number of shoots per callus lump / Shoots over 2 mm (%): Type I calli, 2 weeks
Protocol: To examine the effects of various sugars on the plant regeneration efficiency from calli, the type I calli were dissected into lumps with a diameter of 2 mm and grown on the MS media containing 1 mg/L TDZ and 3% (w/v) fructose, galactose, glucose, maltose, or sucrose. For each treatment, 3 MS plates, each with 25 calli, were used. […] To determine the optimal concentration of maltose, the type I calli were grown on the MS media supplemented with various concentrations of maltose at 1.5, 3.0, 4.5, 6.0, 7.5, or 9%.
The effects of different sugars on the plant regeneration efficiency from calli were examined using the shoot induction media (SIM) supplemented with different sugars.
Type I calli were cultured on the MS medium containing 1 mg/L TDZ for 2 weeks. Each value in the second column represents a mean calculated from 25 calli per each experiment. Each value in the third column represents a mean calculated from 10 calli for each experiment.
Type I calli were cultured on the MS medium containing 1 mg/L TDZ and various concentrations of maltose for 2 weeks.

[6] = 2,4-dichlorophenoxyacetic acid 1 mg/L, 6-benzylaminopurine 0 mg/L
[7] = 2,4-dichlorophenoxyacetic acid 2 mg/L, 6-benzylaminopurine 0 mg/L
[8] = 2,4-dichlorophenoxyacetic acid 4 mg/L, 6-benzylaminopurine 0 mg/L
[9] = 2,4-dichlorophenoxyacetic acid 8 mg/L, 6-benzylaminopurine 0 mg/L
[10] = 2,4-dichlorophenoxyacetic acid 1 mg/L
[11] = 2,4-dichlorophenoxyacetic acid 2 mg/L
[12] = 2,4-dichlorophenoxyacetic acid 4 mg/L
[13] = 2,4-dichlorophenoxyacetic acid 8 mg/L
[14] = maltose 15 g/L, MS with 1 mg/L TDZ
[15] = maltose 30 g/L, MS with 1 mg/L TDZ
[16] = maltose 45 g/L, MS with 1 mg/L TDZ
[17] = maltose 60 g/L, MS with 1 mg/L TDZ
[18] = maltose 75 g/L, MS with 1 mg/L TDZ
[19] = maltose 90 g/L, MS with 1 mg/L TDZ
[20] = sugar 30 g/L, MS medium with 1 mg/L TDZ
[21] = 2,4-dichlorophenoxyacetic acid 0 mg/L, 6-benzylaminopurine 0.02 mg/L
[22] = 2,4-dichlorophenoxyacetic acid 0 mg/L, 6-benzylaminopurine 0.2 mg/L
[23] = 2,4-dichlorophenoxyacetic acid 0 mg/L, 6-benzylaminopurine 2 mg/L
[24] = 2,4-dichlorophenoxyacetic acid 0 mg/L, 6-benzylaminopurine 4 mg/L

c1coc(CNc2ncnc3[nH]cnc23)c1 [Kinetin, kinetin]
Number of calli with shoots ([1]; growth regulator 1 mg/L): 8
Number of calli with shoots ([1]; growth regulator 4 mg/L): 7
Number of shoots over 5 mm ([2]; growth regulator 1 mg/L): 0
Number of shoots per callus lump ([2]; growth regulator 1 mg/L): 3.0
Number of shoots over 5 mm ([2]; growth regulator 4 mg/L): 0
Number of shoots per callus lump ([2]; growth regulator 4 mg/L): 1.7

O=C(O)COc1ccc(Cl)cc1Cl [2,4-dichlorophenoxyacetic acid]
Callus producing seeds (%) [3, 6]: 15.5%
Number of callus producing seeds [3, 6]: 47
Callus producing seeds (%) [3, 7]: 10.7%
Number of callus producing seeds [3, 7]: 18
Callus producing seeds (%) [3, 8]: 15.7%
Number of callus producing seeds [3, 8]: 19
Callus producing seeds (%) [3, 9]: 11.1%
Number of callus producing seeds [3, 9]: 38
Fate of induced calli ([3]; MS media with higher than 4 mg/L of the hormone): the calli became brownish as they grew and eventually died
Calli Type I˜III (sum of types I to III) (%) [4, 10]: 8.5%
Calli showing Type I morphology (%) [4, 10]: 4.3%
Calli showing Type II morphology (%) [4, 10]: 0 (0) %
Calli showing Type III morphology (%) [4, 10]: 4.3%
Calli showing Type IV morphology (%) [4, 10]: 91.5%
Number of calli Type I˜III (sum of types I to III) [4, 10]: 4
Number of calli showing Type I morphology [4, 10]: 2
Number of calli showing Type II morphology [4, 10]: 0 (0)
Number of calli showing Type III morphology [4, 10]: 2
Number of calli showing Type IV morphology [4, 10]: 43
Calli Type I˜III (sum of types I to III) (%) [4, 11]: 5.6%
Calli showing Type I morphology (%) [4, 11]: 0 (0) %
Calli showing Type II morphology (%) [4, 11]: 0 (0) %
Calli showing Type III morphology (%) [4, 11]: 5.6%
Calli showing Type IV morphology (%) [4, 11]: 94.4%
Number of calli Type I˜III (sum of types I to III) [4, 11]: 1
Number of calli showing Type I morphology [4, 11]: 0 (0)
Number of calli showing Type II morphology [4, 11]: 0 (0)
Number of calli showing Type III morphology [4, 11]: 1
Number of calli showing Type IV morphology [4, 11]: 17
Calli Type I˜III (sum of types I to III) (%) [4, 12]: 5.3%
Calli showing Type I morphology (%) [4, 12]: 0 (0) %
Calli showing Type II morphology (%) [4, 12]: 0 (0) %
Calli showing Type III morphology (%) [4, 12]: 5.3%
Calli showing Type IV morphology (%) [4, 12]: 94.7%
Number of calli Type I˜III (sum of types I to III) [4, 12]: 1
Number of calli showing Type I morphology [4, 12]: 0 (0)
Number of calli showing Type II morphology [4, 12]: 0 (0)
Number of calli showing Type III morphology [4, 12]: 1
Number of calli showing Type IV morphology [4, 12]: 18
Calli Type I˜III (sum of types I to III) (%) [4, 13]: 0 (0) %
Calli showing Type I morphology (%) [4, 13]: 0 (0) %
Calli showing Type II morphology (%) [4, 13]: 0 (0) %
Calli showing Type III morphology (%) [4, 13]: 0 (0) %
Calli showing Type IV morphology (%) [4, 13]: 100%
Number of calli Type I˜III (sum of types I to III) [4, 13]: 0 (0)
Number of calli showing Type I morphology [4, 13]: 0 (0)
Number of calli showing Type II morphology [4, 13]: 0 (0)
Number of calli showing Type III morphology [4, 13]: 0 (0)
Number of calli showing Type IV morphology [4, 13]: 38

OC[C@H]1O[C@H](O[C@H]2[C@H](O)[C@@H](O)C(O)O[C@@H]2CO)[C@H](O)[C@@H](O)[C@@H]1O (mixture of isomers) [Maltose, maltose]
Colour of leaf and stem margins of regenerated plants [5]: exhibited color caused by accumulation of anthocyanin-related pigments
Physical stress on cultured cells (anthocyanin accumulation in regenerated shoots) [5]: confers a physical stress on the cultured cells
Calli with green shoot (%) [5, 14]: 37.3%
Number of shoots per callus lump [5, 14]: 9.9 ± 0.1
Shoots over 2 mm (%) [5, 14]: 45.2 ± 3.4%
Calli with green shoot (%) [5, 15]: 36.0%
Number of shoots per callus lump [5, 15]: 12.9 ± 1.2
Shoots over 2 mm (%) [5, 15]: 51.4 ± 3.9%
Calli with green shoot (%) [5, 16]: 32.0%
Number of shoots per callus lump [5, 16]: 10.2 ± 1.3
Shoots over 2 mm (%) [5, 16]: 32.1 ± 3.6%
Calli with green shoot (%) [5, 17]: 29.3%
Number of shoots per callus lump [5, 17]: 4.9 ± 0.6
Shoots over 2 mm (%) [5, 17]: 14.5 ± 5.5%
Calli with green shoot (%) [5, 18]: 30.7%
Number of shoots per callus lump [5, 18]: 8.3 ± 0.9
Shoots over 2 mm (%) [5, 18]: 27.3 ± 4.0%
Calli with green shoot (%) [5, 19]: 28.0%
Number of shoots per callus lump [5, 19]: 2.5 ± 0.3
Shoots over 2 mm (%) [5, 19]: 6.7 ± 0.2%
Calli with green shoot (%) [5, 20]: 33.3 ± 2.7%
Number of shoots per callus lump [5, 20]: 9.4 ± 0.3
Shoots over 2 mm (%) [5, 20]: 46.4 ± 5.0%

O=C[C@H](O)[C@@H](O)[C@@H](O)[C@H](O)CO [Galactose, galactose]
Calli with green shoot (%) [5, 20]: 0%
Number of shoots per callus lump [5, 20]: 0
Shoots over 2 mm (%) [5, 20]: 0%

c1ccc(CNc2ncnc3nc[nH]c23)cc1 [6-benzylaminopurine]
Number of calli with shoots ([1]; growth regulator 1 mg/L): 17
Number of calli with shoots ([1]; growth regulator 4 mg/L): 9
Callus producing seeds (%) [3, 21]: 0 (0) %
Number of callus producing seeds [3, 21]: 0 (0)
Callus producing seeds (%) [3, 22]: 0 (0) %
Number of callus producing seeds [3, 22]: 0 (0)
Callus producing seeds (%) [3, 23]: 0 (0) %
Number of callus producing seeds [3, 23]: 0 (0)
Callus producing seeds (%) [3, 24]: 0 (0) %
Number of callus producing seeds [3, 24]: 0 (0)
Number of shoots over 5 mm ([2]; growth regulator 1 mg/L): 19
Number of shoots per callus lump ([2]; growth regulator 1 mg/L): 5.2
Number of shoots over 5 mm ([2]; growth regulator 4 mg/L): 1
Number of shoots per callus lump ([2]; growth regulator 4 mg/L): 3.7

O=C(CO)[C@@H](O)[C@H](O)[C@H](O)CO [Fructose, fructose]
Calli with green shoot (%) [5, 20]: 17.3 ± 2.7%
Number of shoots per callus lump [5, 20]: 4.4 ± 0.8
Shoots over 2 mm (%) [5, 20]: 12.6 ± 3.0%

OC[C@H]1O[C@@](CO)(O[C@H]2O[C@H](CO)[C@@H](O)[C@H](O)[C@H]2O)[C@@H](O)[C@@H]1O [Sucrose, sucrose]
Calli with green shoot (%) [5, 20]: 45.3 ± 9.3%
Number of shoots per callus lump [5, 20]: 4.5 ± 0.1
Shoots over 2 mm (%) [5, 20]: 4.5 ± 0.2%

O=C(Nc1ccccc1)Nc1cnns1 [TDZ, thidiazuron]
Number of calli with shoots ([1]; growth regulator 1 mg/L): 17
Number of calli with shoots ([1]; growth regulator 4 mg/L): 10
Number of shoots over 5 mm ([2]; growth regulator 1 mg/L): 14
Number of shoots per callus lump ([2]; growth regulator 1 mg/L): 4.8
Number of shoots over 5 mm ([2]; growth regulator 4 mg/L): 1
Number of shoots per callus lump ([2]; growth regulator 4 mg/L): 4.1
Growth of regenerated plants ([2]; high concentration of TDZ): severely retarded
Morphology of regenerated plants ([2]; high concentration of TDZ): plants with abnormal morphology were observed at a high frequency
Plant regeneration and further growth ([2]; only the TDZ included): plant regeneration was observed, but the plants did not continue growing
